Measured values reported in patent US4186194A (priority 1973, dated 1980).

What was measured:
guinea pigs = assay: Delayed hypersensitivity with respect to the substances in guinea pigs treated with Freund's complete adjuvant; format: in vivo, guinea pig; settings: 5 and 10 μg in the dermis of guinea pigs, three weeks after ovalbumine with FIA or FCA
Description: Three groups of guinea pigs were injected (in their foot pads) with 1 mg of ovalbumine together with:
(a) Freund's incomplete adjuvant (FIA) and
(b) Freund's complete adjuvent (FCA) respectively.
The delayed hypersensitivity was measured by subcutaneous reaction three weeks thereafter, by injecting 5 mg of ovalbumine and of 5 and 10 μg of either the substance BB and the muramyl-dipeptide in the dermis of the animals.

[1] = tested on: Female Hartley guinea-pigs; assay: Delayed hypersensitivity to ovalbumin (cutaneous reaction); format: in vivo, guinea-pig; settings: Table 2, adjuvant dose 25 μg
Description: The delayed hypersensitivity to ovalbumin was measured by cutaneous reaction four weeks after injection; it is expressed by the diameter in millimeters of the erythema (E), of the induration (I) or the necrosis (N), forty-eight hours after sub-cutaneous injection of 10 or 100 μg of ovalbumin.

mastocytome = assay: Activation of macrophages in vitro (cytotoxicity with respect to the mastocytome); format: cell-based; settings: incubated directly with normal macrophages and with macrophages from an inflammatory peritoneal exsudate (both cases)
Description: The activity of the muramyl-dipeptide was measured by directly incubating it with both normal macrophages and macrophages originating from an inflammatory peritoneal exsudate.

[2] = tested on: tumor cells (mastocytome); assay: Antitumor effect of peritoneal macrophages activated in vivo; format: cell-based; settings: macrophages of mice injected intraperitoneally with 30 μg, recovered 4 days later, incubated with tumor cells
Description: The following test takes advantage of the finding made by several authors that macrophages become cytotoxic with respect to neoplasic cells, when they have previously been activated by immuno-adjuvant substances.
Two groups of three mice were injected intraperitoneally with 30 μg of each of the substances respectively. The mice were sacrificed 4 days later. There macrophages were recovered according to the technique of D. Juy, C. Bona and L. Chedid, C. R. Acad. Sc. Paris, 1974, 268, Serie D, 1859 and incubated in the presence of tumor cells (mastocytome).
The inhibition of the mastocytome increase was measured by reference to the reduced incorporation of radioactive thymidine as compared to that of controls.

surrenalectomized mice = assay: Toxicity in surrenalectomized mice; format: in vivo; settings: 30 μg dosage
[3] = tested on: Female Hartley guinea-pigs; assay: Adjuvant activity: rates of antibodies with respect to ovalbumin after injection with incomplete Freund adjuvant and ovalbumin; format: in vivo, guinea-pig; settings: Table 2; dose 25 μg/animal
Description: Female Hartley guinea-pigs of 300-350 g received, in the plantar pad of each of the two rear paws, an emulsion composed of equal parts of incomplete Freund adjuvant and a physiological solution containing ovalbumin (5 mg/guinea-pig) and the preparation to be tested. The incomplete Freund adjuvant (FIA) (that is to say not containing mycobacteria), is the complete adjuvant (FCA) marketed by the DIFCO company were used as controls.
The rates of antibodies with respect to ovalbumin were determined three weeks after injection. The antibody rate is expressed in μg/ml of serum of the antigen-antibody precipitate at the point of equivalents.

CC(=O)N[C@@H]1[C@@H](O[C@H](C)C(=O)N[C@@H](C)C(=O)N[C@H](CCC(=O)O)C(N)=O)[C@H](O)[C@@H](CO)O[C@H]1O [N-acetylmuramyl-L-Ala-D-Glu-NH2, 2-(2-acetamido-2-desoxy-3-O-D-glucopyranosyl)-D-propionyl-L-Ala-(γ-OH)-D-α-Glu NH2]
Delayed hypersensitivity reaction to the substance (guinea pigs): dit not induce any detectable reaction | Delayed Hypersensitivity, erythema (E) ([1]; 10 μg ovalbumin injection): 9 millimeters | Delayed Hypersensitivity, erythema (E) ([1]; 100 μg ovalbumin injection): 17 millimeters | Increase in vitro of the cytotoxicity of the macrophages with respect to the mastocytome (mastocytome): capable of increasing in vitro the cytotoxicity of the macrophages | Inhibition of the mastocytome increase (reduced incorporation of radioactive thymidine compared to controls) [2]: 84% | Toxicity (surrenalectomized mice): no detectable toxicity | Antibody/antiovalbumin, Average [3]: 5210 µg/mL | Antibody/antiovalbumin, animal 1 [3]: 5280 µg/mL | Antibody/antiovalbumin, animal 2 [3]: 6000 µg/mL | Antibody/antiovalbumin, animal 3 [3]: 2960 µg/mL | Antibody/antiovalbumin, animal 4 [3]: 6880 µg/mL | Antibody/antiovalbumin, animal 5 [3]: 4960 µg/mL
